From patent US7087375B1, “Method for determining the mechanism of HIV RT inhibitors” (priority 2000, dated 2006)
“And” between values parts separate entries of the source, which are not always exact repeats. Equal entries are not always repeated.

What was measured:
[1] = system: HXB2 site-directed mutant M41L, T69S-SS, T215Y; type: cell-based; conditions: virus M41L
[2] = system: HXB2 site-directed mutant T69S-SS; type: cell-based; conditions: virus T69S-SS
[3] = system: HXB2 site-directed mutant Q151M; type: cell-based; conditions: virus Q151M
[4] = system: HXB2 site-directed mutant T69S-SG; type: cell-based; conditions: virus T69S-SG
[5] = system: HXB2 site-directed mutant M41L, T69S-SG, T215Y; type: cell-based; conditions: virus M41L
[6] = system: HXB2 site-directed mutant M41L, D67N, K70R, M184V, T215Y; type: cell-based; conditions: virus M41L
[7] = system: HXB2 site-directed mutant M41L, T69S-AG, T215Y; type: cell-based; conditions: virus M41L
[8] = system: HXB2 site-directed mutant T69S-AG; type: cell-based; conditions: virus T69S-AG
[9] = system: HXB2 site-directed mutant M41L, T215Y; type: cell-based; conditions: virus M41L
[10] = system: HXB2 site-directed mutant D67N, K70R; type: cell-based; conditions: virus D67N
[11] = system: HXB2 site-directed mutant V75T; type: cell-based; conditions: virus V75T
[12] = system: HXB2 site-directed mutant M41L, M184V, T215Y; type: cell-based; conditions: virus M41L
wild type HXB2 virus = assay: HIV drug susceptibility assay (recombinant virus, MT-4 cells); conditions: for IC50: Human immunodeficiency virus 1, HXB2, MT4, read-out: mean IC50 for the wild type control virus

## Nc1ccn([C@@H]2CS[C@H](CO)O2)c(=O)n1 [3TC, lamivudine]
[1]
  Fold resistance in IC50 relative to HXB2: 4.3 fold
[2]
  Fold resistance in IC50 relative to HXB2: 5.0 fold
[3]
  Fold resistance in IC50 relative to HXB2: 2.0 fold
[4]
  Fold resistance in IC50 relative to HXB2: 2.9 fold
[5]
  Fold resistance in IC50 relative to HXB2: 11.3 fold
[6]
  Fold resistance in IC50 relative to HXB2: >62 fold
[7]
  Fold resistance in IC50 relative to HXB2: 6.1 fold
[8]
  Fold resistance in IC50 relative to HXB2: 4.2 fold
[9]
  Fold resistance in IC50 relative to HXB2: 1.0 fold
[10]
  Fold resistance in IC50 relative to HXB2: 1.2 fold
[11]
  Fold resistance in IC50 relative to HXB2: 3.2 fold
[12]
  Fold resistance in IC50 relative to HXB2: >62 fold
Wild type HXB2 virus
  IC50: 600 nM

## Cc1cn([C@H]2C[C@H](N=[N+]=[N-])[C@@H](CO)O2)c(=O)[nH]c1=O [AZT, zidovudine]
[1]
  Fold resistance in IC50 relative to HXB2: 12 fold and 12.0 fold and 12.0 (+/−2) fold
[3]
  Fold resistance in IC50 relative to HXB2: 2.1 fold
[4]
  Fold resistance in IC50 relative to HXB2: 8.1 fold and 8.1 (+/−4) fold
[5]
  Fold resistance in IC50 relative to HXB2: >96 fold
[6]
  Fold resistance in IC50 relative to HXB2: 6.4 fold and 6.4 (+/−1.5) fold
[7]
  Fold resistance in IC50 relative to HXB2: >96 fold
[8]
  Fold resistance in IC50 relative to HXB2: 7.0 fold and 7.0 (+/−4) fold
[9]
  Fold resistance in IC50 relative to HXB2: 26 fold and 26.2 fold and 26.2 (+/−10) fold
[10]
  Fold resistance in IC50 relative to HXB2: 11 fold and 11.2 fold
[11]
  Fold resistance in IC50 relative to HXB2: 1.4 fold
[12]
  Fold resistance in IC50 relative to HXB2: 5.2 fold and 5.2 (+/−1.5) fold
Wild type HXB2 virus
  IC50: 12 nM
Wild type HXB2 virus; wild type HXB2 virus (reference)
  Virus Assay fold resistance: 1.0 fold
